Values after ≈ are worked out from the molar mass of the structure shown. Where two headings read alike, the source gives them in different places.
Legend:
A549 cells = assay: MTT cytotoxicity assay in A549 cells; type: cell-based; conditions: Homo sapiens
Procedure: A 3-[4,5-dimehyl-2-thiazolyl]-2,5-diphenyl-2H-tetrazoliumbromide (MTT) assay was utilized to assess the concentration-response curves for quinazoline analogues as previously reported. A549 cells (ATCC CCL-185, human alveolar basal epithelial cell line) were used to account for the general cytotoxicity of compounds. Cells were cultured in DMEM medium containing fetal bovine serum (FBS; 10%), penicillin (10 U/mL), and streptomycin (100 U/mL). The temperature was maintained at 37 °C with 5% CO2. Cells were seeded for 16–18 h in DMEM and incubated for 72 h with the test compounds. After incubation, MTT (5 mg/mL in normal saline) was added with DMEM and incubated for 3 h. Careful decantation of the medium and addition of DMSO (50 µL) was done. Absorbance values were recorded at 570 nm after 5 min mechanical shaking of the microplate (Sunrise microplate reader, Tecan).
The activity was presented as the inhibitory concentration required to produce a 50% response (IC50). Prism 6.0 GraphPad Software Inc., (San Diego, CA, USA) was utilized for data fitting. 0.5% DMSO was used as the negative control.

[1] = test system: endothelium-intact rat pulmonary arterial rings; assay: Vasorelaxation of PE pre-contracted endothelium-intact (E+) pulmonary arterial rings, organ bath; conditions: Rattus norvegicus; for Emax: maximal relaxation, endothelium-intact rings, up to 30 µM, mean ± SEM; for IC50: Table S3, endothelium-intact, read-out: E+ Vaso. pIC50 (converted); for EC50: endothelium-intact (E+) rings pre-contracted with 10^-5 M PE, cumulative 0.0001–30 µM, mean (SEM), n = 6, read-out: Vaso E+ EC50 µM (SEM)
physchem = conditions: for solubility thermodynamic at 6 h: pH 7.4, aqueous buffer, thermodynamic from solid
Procedure: The solubility of the compounds under investigation here were assessed in phosphate buffer at pH 7.4 using the equilibrium shake-flask method.
An equilibrium shake-flask technique was used to determine the solubility of samples in PBS at pH 7.4. Approximately 1 mg of sample was placed in a 10 mL glass screw top vial and dissolved in 1 mL of 0.02 M PBS at pH 7.4. The solution was sonicated for 1 h, followed by shaking for 6 h (IKA HS 260). The saturated solution was then filtered using a nylon syringe filter. A standard solution of each sample was prepared by dissolving a weighed amount of the sample in 1 mL of DMSO. The concentration of sample dissolved in the PBS solution was determined by comparing the peak area of the PBS and DMSO standard using an Agilent 1100 series HPLC with a Sunshell C8 column (Chromanik Technologies Inc., Osaka, Japan). A 100 µL injection of the aqueous sample and 5 µL of DMSO solution (pre-diluted 100 fold using DMSO) were used.

[2] = test system: endothelium-denuded rat pulmonary arterial rings; assay: Vasorelaxation of PE pre-contracted endothelium-denuded (E−) pulmonary arterial rings, organ bath; conditions: for IC50: Table S3, endothelium-denuded, read-out: E- Vaso. pIC50 (converted); for EC50: endothelium-denuded (E−) rings pre-contracted with 10^-5 M PE, cumulative 0.0001–30 µM, mean (SEM), n = 6, read-out: Vaso E− EC50 µM (SEM); for Emax: maximal relaxation, endothelium-denuded rings, up to 30 µM, mean ± SEM
[3] = test system: PE-induced contraction of endothelium-denuded pulmonary arterial rings; assay: Inhibition of phenylephrine (PE)-induced contraction in endothelium-denuded arterial rings; set-up: species or system rat; conditions: 10 µM compound, 15 min pre-incubation, E− rings; for inhibition at 10 µM: Rattus norvegicus, PE 0.0001–100 µM, n = 3–5, read-out: % PE-Contraction Inhibition (SEM)
Procedure: These experiments were undertaken to assess the pharmacological activity of quinazoline analogues against the structurally related α1 receptor blocker (prazosin). In contrast to previous vasorelaxant experiments, this protocol was developed to determine the inhibitory effect of pre-incubated (15 min) inhibitors (10 µM) on the concentration-dependent vasoconstriction induced by cumulative addition of PE (0.0001–100 µM) in endothelium-denuded pulmonary arterial rings. Figure 5 illustrates the real time contractile response shown by the pulmonary arterial ring upon cumulative addition of PE, which evoked a concentration-dependent vasoconstriction, increasing the vessel’s tension.
After anesthesia with thiopental sodium (100 mg/kg, i.p.) (Anesthal®, Jagsonpsal Pharmaceutical Ltd., Haryana, India), rats were euthanized by exsanguination. Lungs were carefully excised, cleaned by the removal of connective tissue, and placed in cold physiological Krebs’ solution composed of (mM): NaCl 122; KCl 5; N-[2-hydroxyethyl] piperazine-N′-[2-ethane-sulfonic acid] (HEPES) 10; KH2PO4 0.5; NaH2PO4 0.5; MgCl2 1; CaCl2 1.8; and glucose 11 adjusted to pH 7.3 using 1 M NaOH. The pulmonary artery was isolated from the lungs and cut into rings approximately 2 mm in length before mounting in the organ bath chambers. Endothelial cells were mechanically removed in some experiments by gentle rubbing of the inner surface with forceps. Pulmonary arterial rings were mounted on intraluminal wires via stainless steel hooks maintaining the resting tension at 1 g and rings were equilibrated for 30 min before obtaining a stable contraction with 10^−5 M phenylephrine (PE). The rings were immersed in 10 mL baths containing physiological Krebs’ solution at 37 °C, which was continuously bubbled with air. Force transducers were connected with intraluminal wires to measure isometric tension via a Mac Lab A/D converter (Chart V5, A.D. Instruments, Castle Hill, NSW, Australia). The functional integrity of the endothelium in the vessels was confirmed by vasorelaxation of ≥70% with sequential addition of 10^−5 M acetylcholine (ACh) to pre-contracted vessels with 10^−5 M PE. Relaxations ≤30% to 10^−5 M ACh in vessels rubbed mechanically were considered successfully endothelium denuded.
The protocol included the assessment of the inhibitory vasoconstriction effect of quinazoline test compounds on endothelium-denuded arterial rings. Briefly, the arterial rings were treated with the α1-receptor blocker (prazosin) or test compound at a concentration of 10 µM for 15 min before construction of the second concentration response curve with cumulative addition of PE (0.0001–100 µM). The same conditions were used to test the effects of the solvent (DMSO 0.2%). The results were obtained in percentages by comparison of the maximum contraction without treatment with the contraction in the presence of the test compound [24, 36, 37].

[4] = A549, MTT, 72 h incubation, read-out: A549 IC50, µM (S.D.)
[5] = Table S3, A549, read-out: Cytox. pIC50 (converted)

Structure (SMILES)	IC50 (A549 cells; [4]) [µM]	IC50 (A549 cells; [5]) [µM]	Emax [1] [%]	IC50 [1] [µM]	EC50 [1] [µM]	Log Sol (physchem; 6 h, pH 7.4)	Sol. pH7.4 (µM) (physchem; 6 h, pH 7.4)	solubility thermodynamic at 6 h (physchem) [µg/mL]	IC50 [2] [µM]	EC50 [2] [µM]	Emax [2] [%]	inhibition at 10 µM [3] [%]	maximal contraction induced by PE attenuated to ([3]; remaining contraction) [%]	Sol. pH7.4 mg/mL (physchem; PBS pH 7.4, shake-flask) [mg/mL]	Sol. pH7.4 (µM) (physchem; PBS pH 7.4, shake-flask, value in brackets)	solubility thermodynamic at 6 h (physchem; phosphate buffered saline (PBS)) [µg/mL]
c1ccc(CNc2nc(Nc3ccccc3)nc3ccccc23)cc1 [Compound 1]	12.3	12.3	90 ± 5.64	5.5	5.54	-0.39	0.41	130 (≈ 398 µM)	13.5	13.5	86.4 ± 4.03	–	–	–	–	–
c1ccc(CNc2nc(Nc3ccc(N4CCOCC4)cc3)nc3ccccc23)cc1 [Compound 2]	12.1	12	94.7 ± 3.33	5.01	4.98	-0.22	0.60	250 (≈ 608 µM)	12	12	85.7 ± 6.05	56.6	43.38 ± 5.90	–	–	–
CN(C)S(=O)(=O)c1ccc(Nc2nc(NCc3ccccc3)c3ccccc3n2)cc1 [Compound 3]	18.3	18.2	82.4 ± 5.9	3.55	3.59	-0.06	0.88	380 (≈ 877 µM)	6.31	6.25	64.3 ± 5.31	–	–	–	–	–
NS(=O)(=O)c1ccc(Nc2nc(NCc3ccccc3)c3ccccc3n2)cc1 [Compound 4]	23	22.9	88.5 ± 5.58	3.16	3.13	-1.52	0.03	10 (≈ 24.7 µM)	8.32	8.29	78.5 ± 9.19	–	–	–	–	–
NS(=O)(=O)c1cccc(Nc2nc(NCc3ccccc3)c3ccccc3n2)c1 [Compound 5]	11.2	11.2	91.7 ± 3.77	1.62	1.63	0.14	1.37	560 (≈ 1380 µM)	1.15	1.15	95.8 ± 2.4	–	–	–	–	–
c1ccc(Nc2nc(NCc3cccs3)c3ccccc3n2)cc1 [Compound 6]	27.8	27.5	88 ± 7.39	9.33	9.42	-0.40	0.40	130 (≈ 391 µM)	9.33	9.51	91.2 ± 5.26	–	–	–	–	–
NS(=O)(=O)c1ccc(Nc2nc(NCc3cccs3)c3ccccc3n2)cc1 [Compound 9]	32.7	32.4	98.4 ± 1.4	1.02	1.03	-0.80	0.16	60 (≈ 146 µM)	1.74	1.72	82.1 ± 8.43	–	–	–	–	–
NC(=O)c1ccc(Nc2nc(NCc3cccs3)c3ccccc3n2)cc1 [Compound 10]	28.3	28.2	90.2 ± 6.48	1.45	1.46	0.08	1.20	450 (≈ 1200 µM)	5.13	5.15	90.4 ± 5.3	–	–	–	–	–
NS(=O)(=O)c1cccc(Nc2nc(NCc3cccs3)c3ccccc3n2)c1 [Compound 11]	15	15.1	98.7 ± 1.26	2.29	2.28	-0.47	0.34	140 (≈ 340 µM)	11	10.9	87.4 ± 4.66	–	–	–	–	–
NC(=O)c1cccc(Nc2nc(NCc3cccs3)c3ccccc3n2)c1 [Compound 12]	15.4	15.5	98.7 ± 1.31	4.17	4.15	-0.25	0.56	210 (≈ 559 µM)	8.13	8.15	87.1 ± 3.63	–	–	–	–	–
CCCc1nn(C)c2c(=O)[nH]c(-c3cc(S(=O)(=O)N4CCN(C)CC4)ccc3OCC)nc12 [Sildenafil (SIL), Sildenafil, reference compound]	–	–	97.8 ± 2.19	–	0.14	–	–	–	–	0.89	85.8 ± 6.41	58.3	–	20.83	43.88	20800 (≈ 43900 µM)

Source: article PMC6358775, “Elucidation of Vasodilation Response and Structure Activity Relationships of N^2,N^4-Disubstituted Quinazoline 2,4-Diamines in a Rat Pulmonary Artery Model” (Molecules, 2019)
